Data on 23 compounds can be found in patent US20060251597A1, “ANTI-ODOR COMPOSITIONS AND THERAPEUTIC USE” (priority 2005, published 2006).

Where a name gives a salt, the structure may show the parent alone. *1 amine or outer side, *2 acyl side, *3 side chain or, on linkers, in order; H or OH if unused. Where a SMILES comes first, the peptide text is derived from it. [ ]: non-standard residue; d: D form. γGlu = O=C(O)[C@H](CCC(=O)[*:2])N[*:1]

The nature of assay [1]: panel sniff tests of solvents, ingredients and amines against thiol malodor (general statements). The settings on record: solvent or ingredient, based on the panel tests. The method, then:
Initially, a malodor compound such as about 5% by weight was prepared in water solution or in oil-in-water emulsion. A sulfone or organic amine of the present embodiments was added at various concentrations for example, ranging from about 2%, 1%, 0.5% and 0.1% to the formulations containing the malodor substance. The composition containing the malodor substance without a sulfone or organic amine was used as the control.

Assay [2] is described as follows: anti-odor test, panel by sniffing: N-acetyl-L-cysteine dissolved in a single solvent or liquid ingredient (anhydrous composition). The following applies: for anti-odor effect: 10% N-acetyl-L-cysteine and 90% solvent or liquid ingredient; for suppression of the malodor, judged by panel: 10% N-acetyl-L-cysteine and 90% solvent. The method, then: An anti-odor test was carried out in an anhydrous solvent according to the following example. In a series of test tubes, 4.5 ml of a solvent was added to a test tube such that each test tube comprised a single solvent. The solvents added to the test tubes included water, ethanol, acetone, n-propanol, isopropyl alcohol, propylene glycol, butylenes glycol, benzyl alcohol, ethoxydiglycol, 2-ethyl-1,3-hexanediol. N-Acetyl-L-cysteine (MW 163) 0.5 g was then added and dissolved in each solvent. The test tubes were warmed slightly to enhance dissolution of N-acetyl-L-cysteine crystals. Each test tube contained 10% N-acetyl-L-cysteine and 90% solvent.
An anti-odor test was carried out in an anhydrous composition according to the following example. In a series of test tubes, 4.5 ml of a liquid ingredient was added to a test tube such that each test tube comprised a single liquid ingredient. The liquid ingredients added to a test tube included ethyl glycolate, ethyl-L-lactate, diethyl tartrate, triethyl citrate, tripropyl citrate, ethyl-DL-mandelate, benzyl N-acetyl-prolinate, ethyl N-acetyl-prolinate, propyl N-acetyl-prolinate. N-Acetyl-L-cysteine (MW 163) 0.5 g was then added and dissolved in each liquid ingredient. The test tubes were warmed slightly to enhance dissolution of N-acetyl-L-cysteine crystals. Each test tube contained 10% N-acetyl-L-cysteine and 90% liquid ingredient. The panel judged the anti-odor effect in each test tube.

Assay [3] can be described thus: anti-odor test, panel by sniffing: thiol or similar malodor compound in anhydrous composition. The method, then:
In the same manner, the degree of reducing the presence or preventing the production of malodor generated by a thiol or similar malodor compounds in an anhydrous composition containing a solvent or ingredient of the present embodiments was judged by three-member panel through olfactory sensor by sniffing as (a) no difference from control, (b) slight malodor, (c) trace malodor, and (d) no malodor. In an initial test, a solvent or liquid ingredient of the present embodiments at 4.5 ml was added to a test tube, and a thiol or similar malodor compounds 0.5 g was added to make 10% thiol or similar malodor compounds in the solution. The control solution was prepared by dissolving a thiol or similar malodor compounds 0.5 g in water 4.5 ml to make 10% aqueous solution. The above test solutions including the control solutions were judged by the panel for the anti-odor effect and the degree of reducing the presence or preventing the production of malodor was recorded in the same way as (a) no effect (no difference from control), (b) slight malodor (50% effective), (c) trace malodor (90% effective), and (d) no malodor (completely effective).

Where [4] appears, read: 10% malodor compound in anhydrous solution of isopropyl alcohol 50 parts, diethyl tartarate 25 parts, triethyl citrate 25 parts v/v.
[5] abbreviates: 2% malodor compound in anhydrous solution of isopropyl alcohol 50 parts, diethyl tartarate 25 parts, triethyl citrate 25 parts v/v.

Take `CCCC(O)C(CC)CO` (stereo not drawn) [2-ethyl-1,3-hexanediol]: in assay [1], the “prevention of malodor produced by a thiol or similar malodor compounds” value (from here on “prevention of malodor produced”) is given as “effectively prevent malodor”. The compound also gave an anti-odor effect in assay [2] of 100%.

For the compound `CCOC(=O)CNC(=O)[C@H](CS)NC(=O)CC[C@H](N)C(=O)OCC` [L-Glutathione diethyl ester], the “malodor as judged by panel” value in assay [3] (setting [4]) is recorded as “did not have any malodor”.

Consider `CCOC(=O)[C@H](CSC(C)=O)NC(C)=O` [N,S-Diacetyl-L-cysteine ethyl ester], for which the “malodor as judged by panel” value in assay [3] (setting [4]) is given as “did not have any malodor”.

Take `COC(=O)[C@H](CSC(C)=O)NC(C)=O` [N,S-Diacetyl-L-cysteine methyl ester]: the “malodor as judged by panel” value in assay [3] (setting [4]) is listed as “did not have any malodor”.

Consider `CCOC(=O)CNC(=O)[C@H](CS)NC(=O)CC[C@H](NC(C)=O)C(=O)OCC` [N-Acetyl-L-glutathione diethyl ester], for which the “malodor as judged by panel” value is given as “did not have any malodor” in assay [3] (setting [4]) and “did not have any malodor” in assay [3] (10% malodor compound in diethyl tartarate, anhydrous).

As to `CC(=O)N[C@@H](CCC(=O)N[C@@H](CS)C(=O)NCC(=O)O)C(=O)O` [N-Acetyl-L-glutathione] (Ac-[γGlu]-Cys-Gly-OH), the “malodor as judged by panel” value in assay [3] (setting [5]) is “did not have any malodor”.

As to `CCC(=O)N[C@@H](CS)C(=O)O` [N-Propanoyl-L-cysteine], the “malodor as judged by panel” value in assay [3] (setting [5]) is on record as “did not have any malodor”.

With `CC(=O)N1CCC[C@H]1C(=O)OCc1ccccc1` [benzyl N-acetyl-prolinate], the “prevention of malodor produced” value in assay [1] is on record as “effectively prevent malodor”. The compound further returned an anti-odor effect in assay [2] of 100%.

As to `OCc1ccccc1` [benzyl alcohol], the anti-odor effect in assay [2] came out at 100%.

On to `OCCCCO` [butylene glycol], for which, in assay [1], the “prevention of malodor produced” value is reported as “effectively prevent malodor”. In addition, the “suppression of the malodor, judged by panel” value (from here on “suppression of the malodor”) in assay [2] is listed as “did not suppress the malodor”.

As for `CCOC(=O)C(O)C(O)C(=O)OCC` (stereo not drawn) [diethyl tartrate], the “prevention of malodor produced” value in assay [1] is reported as “effectively prevent malodor”. In assay [2], this compound gave an anti-odor effect of 100%.

Turning to `CCO` [ethanol], in assay [2], the “suppression of the malodor” value is “did not suppress the malodor”.

Regarding `CCOCCOCCO` [ethoxydiglycol], the “prevention of malodor produced” value in assay [1] is reported as “effectively prevent malodor”. In assay [2], this compound registered an anti-odor effect of 100%.

In the case of `CCOC(=O)[C@@H]1CCCN1C(C)=O` [ethyl N-acetyl-prolinate], the “prevention of malodor produced” value in assay [1] is “effectively prevent malodor”. The same compound returned an anti-odor effect in assay [2] of 100%.

`CCOC(=O)CO` [ethyl glycolate]: in assay [1], the “prevention of malodor produced” value is given as “effectively prevent malodor”. For the same compound, the anti-odor effect in assay [2] worked out at 100%.

As to `CCOC(=O)[C@H](C)O` [ethyl-L-lactate], the anti-odor effect in assay [2] turned out to be 100%.

In the case of `CC(C)O` [isopropyl alcohol], the “prevention of malodor produced” value in assay [1] is “effectively prevent malodor”. The compound also returned an anti-odor effect in assay [2] of 100%.

Consider `CCCO` [n-propanol], for which, in assay [1], the “prevention of malodor produced” value is reported as “effectively prevent malodor”. In assay [2], this compound registered an anti-odor effect of 100%.

In the case of `CCCOC(=O)[C@@H]1CCCN1C(C)=O` [propyl N-acetyl-prolinate], the “prevention of malodor produced” value in assay [1] is listed as “effectively prevent malodor”. The compound further showed an anti-odor effect in assay [2] of 100%.

Consider `CC(O)CO` (stereo not drawn) [propylene glycol], for which the “suppression of the malodor” value in assay [2] was “did not suppress the malodor”.

In the case of `CCOC(=O)CC(O)(CC(=O)OCC)C(=O)OCC` [triethyl citrate], the “prevention of malodor produced” value in assay [1] is recorded as “effectively prevent malodor”. The same compound registered an anti-odor effect in assay [2] of 100%.

For the compound `CCCOC(=O)CC(O)(CC(=O)OCCC)C(=O)OCCC` [tripropyl citrate], the “prevention of malodor produced” value in assay [1] is reported as “effectively prevent malodor”. In addition, in assay [2], the anti-odor effect came out at 100%.

`O` [water]: the “suppression of the malodor” value in assay [2] is on record as “did not suppress the malodor”.
